For data set [1], the target named is T1, LOX from glycine max (soybean) (Glycine max, UniProt P08170).
T1 construct: purchased Sigma-Aldrich
T1 sequence (P08170 1-839): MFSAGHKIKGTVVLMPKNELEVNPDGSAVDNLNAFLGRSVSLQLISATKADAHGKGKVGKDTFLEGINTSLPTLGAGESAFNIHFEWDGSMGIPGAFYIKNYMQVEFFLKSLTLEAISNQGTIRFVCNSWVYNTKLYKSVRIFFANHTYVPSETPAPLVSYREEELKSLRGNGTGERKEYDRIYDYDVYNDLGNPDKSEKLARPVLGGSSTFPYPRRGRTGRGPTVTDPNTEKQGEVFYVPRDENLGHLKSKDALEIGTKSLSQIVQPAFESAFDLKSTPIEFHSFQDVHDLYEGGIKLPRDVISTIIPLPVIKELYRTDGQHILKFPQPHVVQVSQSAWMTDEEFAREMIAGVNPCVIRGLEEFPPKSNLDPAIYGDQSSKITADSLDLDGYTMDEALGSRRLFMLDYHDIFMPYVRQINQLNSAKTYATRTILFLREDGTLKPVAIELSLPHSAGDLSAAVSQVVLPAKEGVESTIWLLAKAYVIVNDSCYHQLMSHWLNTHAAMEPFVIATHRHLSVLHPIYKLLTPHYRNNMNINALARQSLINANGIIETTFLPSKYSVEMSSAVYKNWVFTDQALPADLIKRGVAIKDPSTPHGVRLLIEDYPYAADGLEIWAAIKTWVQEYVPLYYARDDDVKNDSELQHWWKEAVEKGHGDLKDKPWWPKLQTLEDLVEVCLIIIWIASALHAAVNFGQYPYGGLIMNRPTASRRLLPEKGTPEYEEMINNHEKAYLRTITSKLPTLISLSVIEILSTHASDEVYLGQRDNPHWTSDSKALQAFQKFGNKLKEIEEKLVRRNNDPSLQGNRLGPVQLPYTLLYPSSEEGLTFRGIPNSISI
Further details: method as in PMID 30987203. The settings on record: 100 µM; cited from earlier work.

Data set [2] relates to LPS-induced •NO production in RAW 264.7 cells. As to conditions: cited from earlier work.
The next data set deals with AGS cells. Briefly: MTT cell viability, AGS cells. The format is cell-based. The settings on record: 100 µM, 24 h. On the procedure:
Adenocarcinoma gastric cells (AGS; Sigma-Aldrich, St. Louis, MO, USA), murine-macrophage cell line (RAW 264.7; American Type Culture Collection, LGC Standards S.L.U., Barcelona, Spain), and human foetal lung fibroblasts (MRC-5; ECACC, Porton Down Salisbury, UK) were cultured as a monolayer at 37 °C in a humidified incubator with 5% carbon dioxide. AGS and RAW 264.7 cells were grown in DMEM, supplemented with 1% streptomycin/penicillin and 10% FBS (Gibco®). MRC-5 cells were grown in MEM, supplemented with 1% streptomycin/penicillin and 10% FBS.
Cell viability was evaluated by the MTT reduction assay. Cells were cultured in 96-well plates (15,000 cells/well for AGS, 25,000 cells/well for RAW and 20,000 cells/well for MRC-5) and allowed to attach for 24 h. After incubation with compounds for 24 h, MTT (0.5 mg/mL final concentration) was added to each well and the plate was incubated for 75 min at 37 °C. Formazan crystals were dissolved by the addition of a DMSO: isopropanol mixture (3:1) and then quantified spectrophotometrically at 570 nm using a microplate reader (Multiskan Thermo Fisher Scientific Oy, Vantaa, Finland).

In a further data set the target is T2, COX-2 (Homo sapiens, UniProt P35354).
T2 construct: purchased Cayman Chemical
T2 sequence (P35354 18-604): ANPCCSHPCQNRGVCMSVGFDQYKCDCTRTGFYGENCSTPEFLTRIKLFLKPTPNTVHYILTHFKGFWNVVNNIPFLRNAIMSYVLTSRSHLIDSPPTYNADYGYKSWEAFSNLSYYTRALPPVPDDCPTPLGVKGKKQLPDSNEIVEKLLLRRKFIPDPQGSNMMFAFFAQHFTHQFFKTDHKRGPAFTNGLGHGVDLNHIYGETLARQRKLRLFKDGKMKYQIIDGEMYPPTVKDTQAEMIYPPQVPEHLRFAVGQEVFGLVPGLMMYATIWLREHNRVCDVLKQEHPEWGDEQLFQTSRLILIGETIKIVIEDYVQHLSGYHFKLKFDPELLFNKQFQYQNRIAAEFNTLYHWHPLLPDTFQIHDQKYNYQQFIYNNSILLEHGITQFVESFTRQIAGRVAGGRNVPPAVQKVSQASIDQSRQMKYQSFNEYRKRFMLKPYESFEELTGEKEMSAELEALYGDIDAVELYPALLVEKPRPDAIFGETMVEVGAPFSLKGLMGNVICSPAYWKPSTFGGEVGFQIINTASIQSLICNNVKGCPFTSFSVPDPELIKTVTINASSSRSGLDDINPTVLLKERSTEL
Further details: method as in PMID 30987203. As to conditions: 25 µM; low selectivity towards COX-2; cited from earlier work.

Another data set has as its target T3, COX-1 (Ovis aries, UniProt P05979).
T3 construct: purchased Cayman Chemical
T3 sequence (P05979 25-600): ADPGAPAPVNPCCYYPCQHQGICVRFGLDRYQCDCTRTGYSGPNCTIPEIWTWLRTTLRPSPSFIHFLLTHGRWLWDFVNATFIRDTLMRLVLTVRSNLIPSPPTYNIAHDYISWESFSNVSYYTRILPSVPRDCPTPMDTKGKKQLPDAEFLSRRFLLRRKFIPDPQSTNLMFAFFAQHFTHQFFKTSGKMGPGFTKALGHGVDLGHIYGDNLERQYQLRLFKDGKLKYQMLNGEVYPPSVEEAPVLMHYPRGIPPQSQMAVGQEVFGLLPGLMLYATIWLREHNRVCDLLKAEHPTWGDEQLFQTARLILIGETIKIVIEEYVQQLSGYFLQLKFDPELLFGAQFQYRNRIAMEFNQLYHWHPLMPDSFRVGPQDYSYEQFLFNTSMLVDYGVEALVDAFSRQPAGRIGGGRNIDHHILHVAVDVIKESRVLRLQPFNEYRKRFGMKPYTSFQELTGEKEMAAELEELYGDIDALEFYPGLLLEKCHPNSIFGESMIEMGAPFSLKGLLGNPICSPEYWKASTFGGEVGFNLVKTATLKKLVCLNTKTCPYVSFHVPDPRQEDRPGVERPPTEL
Further details: method as in PMID 30987203. The settings on record: 25 µM; cited from earlier work.

In a further data set the test system is RAW 264.7 cells. Further details: method as in PMID 30987203. The settings on record: up to 100 µM, 24 h, MTT; cited from earlier work.

Each structure is given as a SMILES string. Entries after “also recorded” stand apart in the source; their conditions may differ.

As usually defined, the IC50 is the concentration that gives 50% inhibition. Take `COc1ccc2cc(C(C)C(=O)NC(Cc3ccc(O)cc3)C(=O)NC(=Cc3ccccc3)C(=O)O)ccc2c1` [Compound 1, Npx-L-Tyr-Z-ΔPhe-OH]: the “LOX inhibition at single concentration” value in data set [1] is “significantly inhibit the LOX enzyme to a similar level to naproxen; also recorded: high levels of lipoxygenase (LOX) inhibition”. Moreover, in data set [2] (preliminary study), the “inhibition of LPS-induced production of •NO” value is listed as “modest ability to inhibit”. Besides, the IC50 in data set [2] (previously reported, read-out: IC50 (LPS-dependent •NO production)) was 79.3 µM. The “toxicity towards AGS cells” value in the data set on AGS cells was “not toxic”. Also, the “COX inhibition level (COX-2)” value at COX-2 was “modest levels of COX inhibition”. At COX-1, the “COX inhibition level (COX-1)” value was “modest levels of COX inhibition”. The “cytotoxic effect on RAW 264.7 viability” value in the data set on RAW 264.7 cells is given as “did not show any statistically significant cytotoxic effects”.
